One experiment concerns the target MCL-1 (Homo sapiens (Human), UniProt Q07820). The experiment can be described thus: Cell free Mcl-1:Bim affinity assay (fluorescence polarization competition). The experiment is classed as binding. The following applies: 15 nM MCL-1, 5 nM FITC-Bim, 1 hour at room temperature; class symbols; read-out: BIM_Ki. In outline: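 Compounds competed with FITC-labelled Bim peptide (5 nM) for MCL-1 (15 nM) in HEPES/NaCl buffer with 1% DMSO, 1 h at room temperature. Fluorescence polarization (535 nm emission) gave % inhibition versus DMSO and positive controls; IC50 from 10-point curves, converted to Ki by the Nikolovska-Coleska equation.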

Another experiment concerns H929 cells. The experiment can be described thus: Cell viability assay (H929 10 FBS). The experiment is classed as cell-based. The following applies: Homo sapiens, NCI-H929, 24 hours, read-out: H929_10FBS IC50. In outline:
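H929 cells, 4000/well, in RPMI 1640 with 10% FBS, sodium pyruvate, HEPES and glucose were exposed to compound 24 h at 37 °C. Viability read as luminescence after 30-60 min at RT with CellTiter-Glo or ATPlite 1 Step.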

SMILES strings stand for the structures. Some results are limits rather than exact numbers.

Chain of MCL-1 (Q07820 whole entry): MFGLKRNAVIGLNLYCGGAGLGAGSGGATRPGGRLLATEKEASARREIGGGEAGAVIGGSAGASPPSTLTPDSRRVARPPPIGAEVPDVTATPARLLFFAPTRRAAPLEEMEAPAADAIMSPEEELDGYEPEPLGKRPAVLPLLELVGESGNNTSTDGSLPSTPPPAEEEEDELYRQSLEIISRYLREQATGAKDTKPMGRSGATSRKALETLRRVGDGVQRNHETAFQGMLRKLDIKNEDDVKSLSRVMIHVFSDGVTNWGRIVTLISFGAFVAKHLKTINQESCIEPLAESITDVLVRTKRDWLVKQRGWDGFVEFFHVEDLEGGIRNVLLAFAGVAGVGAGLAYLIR

Consider `CN(C)C(=O)O[C@@]1(C)/C=C/COC(C)(C)C(=O)NS(=O)(=O)c2ccc3c(c2)N(C[C@@H]2CC[C@H]21)C[C@@]1(CCCc2cc(Cl)ccc21)CO3` [Example 293, [(3R,6R,7S,8E,22S)-6′-chloro-7,12,12-trimethyl-13,15,15-trioxo-spiro[11,20-dioxa-15-thia-1,14-diazatetracyclo[14.7.2.03,6.019,24]pentacosa-8,16,18,24-tetraene-22,1′-tetralin]-7-yl] N,N-dimethylcarbamate], for which, on MCL-1, the Ki is less than 1 nM. Moreover, the IC50 in the experiment on H929 cells is less than 500 nM.

For the compound `CN(C)C(=O)O[C@H]1/C=C/CN2CCC[C@H]2C(=O)NS(=O)(=O)c2ccc3c(c2)N(C[C@@H]2CC[C@H]21)C[C@@]1(CCCc2cc(Cl)ccc21)CO3` [Example 294, [(3R,6R,7S,8E,15S,25S)-6′-Chloro-16,18,18-trioxo-spiro[23-oxa-18-thia-1,11,17-triazapentacyclo[17.7.2.03,6.011,15.022,27]octacosa-8,19,21,27-tetraene-25,1′-tetralin]-7-yl] N,N-dimethylcarbamate], the Ki at MCL-1 lay in the range of 1 to 100 nM. For the same compound, the IC50 in the experiment with H929 cells is less than 500 nM.

On to `CN1C/C=C/[C@H](OC(=O)N[C@H]2CCOC2)[C@@H]2CC[C@H]2CN2C[C@@]3(CCCc4cc(Cl)ccc43)COc3ccc(cc32)S(=O)(=O)NC(=O)C12CCC2` [Example 295, [(3R,6R,7S,8E,22S)-6′-Chloro-11-methyl-12,12-(1,3-propylene)-13,15,15-trioxo-spiro[20-oxa-15-thia-1,11,14-triazatetracyclo[14.7.2.03,6.019,24]pentacosa-8,16,18,24-tetraene-22,1′-tetralin]-7-yl] N-[(3S)-tetrahydrofuran-3-yl]carbamate], for which the Ki on MCL-1 fell in the range of 1 to 100 nM. In the experiment with H929 cells, the IC50 is more than 1000 nM.

Consider `O=C1Cn2ccc(n2)CC(=O)N2CCC(C2)CN2C[C@@]3(CCCc4cc(Cl)ccc43)COc3ccc(cc32)S(=O)(=O)N1` (stereo partly drawn) [Example 296, (23S)-6′-Chloro-16,16-dioxo-spiro[21-oxa-16-thia-1,6,12,15,27-pentazapentacyclo[15.7.2.13,6.19,12.020,25]octacosa-9(27),10,17,19,25-pentaene-23,1′-tetralin]-7,14-dione], for which the Ki at MCL-1 fell in the range of 1 to 100 nM. Moreover, the IC50 in the experiment with H929 cells was less than 500 nM.

For the compound `O=C1Cc2ccn(n2)CC(=O)N2CCC(C2)CN2C[C@@]3(CCCc4cc(Cl)ccc43)COc3ccc(cc32)S(=O)(=O)N1` (stereo partly drawn) [Example 297, (23S)-6′-Chloro-16,16-dioxo-spiro[21-oxa-thia-1,6,9,15,27-pentazapentacyclo[15.7.2.13,6.19,12.020,25]octacosa-10,12(27),17,19,25-pentaene-23,1′-tetralin]-7,14-dione], the Ki on MCL-1 fell in the range of 1 to 100 nM. Moreover, the IC50 in the experiment with H929 cells is more than 1000 nM.

For the compound `CN(C(=O)O[C@H]1/C=C/COC(C)(C)C(=O)NS(=O)(=O)c2ccc3c(c2)N(C[C@@H]2CC[C@H]21)C[C@]1(CO3)OCCc2cc(Cl)ccc21)C1COC1` [Example 298, [(3R,6R,7S,8E,22R)-6′-Chloro-12,12-dimethyl-13,15,15-trioxo-spiro[11,20-dioxa-15-thia-1,14-diazatetracyclo[14.7.2.03,6.019,24]pentacosa-8,16,18,24-tetraene-22,1′-isochromane]-7-yl] N-methyl-N-(oxetan-3-yl)carbamate], the Ki at MCL-1 is less than 1 nM. Also, in the experiment with H929 cells, the IC50 is less than 1000 nM.

Consider `CN(C(=O)O[C@H]1/C=C/COC(C)(C)C(=O)NS(=O)(=O)c2ccc3c(c2)N(C[C@@H]2CC[C@H]21)C[C@]1(CO3)OCCc2cc(Cl)ccc21)[C@@H]1CCOC1` [Example 299, [(3R,6R,7S,8E,22R)-6′-Chloro-12,12-dimethyl-13,15,15-trioxo-spiro[11,20-dioxa-15-thia-1,14-diazatetracyclo[14.7.2.03,6.019,24]pentacosa-8,16,18,24-tetraene-22,1′-isochromane]-7-yl] N-methyl-N-[(3R)-tetrahydrofuran-3-yl]carbamate], for which the Ki at MCL-1 was less than 1 nM. The IC50 in the experiment with H929 cells was less than 1000 nM.

As to `CN(C(=O)O[C@H]1/C=C/COC(C)(C)C(=O)NS(=O)(=O)c2ccc3c(c2)N(C[C@@H]2CC[C@H]21)C[C@]1(CO3)OCCc2cc(Cl)ccc21)C1CCOCC1` [Example 300, [(3R,6R,7S,8E,22R)-6′-Chloro-12,12-dimethyl-13,15,15-trio-spiro[11,20-dioxa-15-thia-1,14-diazatetracyclo[14.7.2.03,6.019,24]pentacosa-8,16,18,24-tetraene-22,1′-isochromane]-7-yl] N-methyl-N-tetrahydropyran-4-yl-carbamate], the Ki at MCL-1 was less than 1 nM. Further, in the experiment on H929 cells, the IC50 was less than 1000 nM.

Regarding `CN(C(=O)O[C@H]1/C=C/COC(C)(C)C(=O)NS(=O)(=O)c2ccc3c(c2)N(C[C@@H]2CC[C@H]21)C[C@@]1(CCOc2cc(Cl)ccc21)CO3)[C@@H]1CCOC1` [Example 301, [(3R,6R,7S,8E,22S)-7′-Chloro-12,12-dimethyl-13,15,15-trioxo-spiro[11,20-dioxa-15-thia-1,14-diazatetracyclo[14.7.2.03,6.019,24]pentacosa-8,16,18,24-tetraene-22,4′-chromane]-7-yl] N-methyl-N-[(3R)-tetrahydrofuran-3-yl]carbamate], at MCL-1, the Ki was less than 1 nM. For the same compound, in the experiment on H929 cells, the IC50 was less than 500 nM.

For the compound `CC1(C)OC/C=C/[C@H](OC(=O)N[C@@H]2CCOC2)[C@@H]2CC[C@H]2CN2C[C@@]3(CCOc4cc(Cl)ccc43)COc3ccc(cc32)S(=O)(=O)NC1=O` [Example 302, [(3R,6R,7S,8E,22S)-7′-Chloro-12,12-dimethyl-13,15,15-trioxo-spiro[11,20-dioxa-15-dioxa-15-thia-1,14-diazatetracyclo[14.7.2.03,6.019,24]pentacosa-8,16,18,24-tetraene-22,4′-chromane]-7-yl] N-[(3R)-tetrahydrofuran-3-yl]carbamate], the Ki at MCL-1 is less than 1 nM. In addition, in the experiment with H929 cells, the IC50 is less than 500 nM.

With `CN(C(=O)O[C@H]1/C=C/COC(C)(C)C(=O)NS(=O)(=O)c2ccc3c(c2)N(C[C@@H]2CC[C@H]21)C[C@@]1(CCOc2cc(Cl)ccc21)CO3)C1COC1` [Example 303, [(3R,6R,7S,8E,22S)-7′-Chloro-12,12-dimethyl-13,15,15-trioxo-spiro[11,20-dioxa-15-thia-1,14-diazatetracyclo[14.7.2.03,6.019,24]pentacosa-8,16,18,24-tetraene-22,4′-chromane]-7-yl] N-methyl-N-(oxetan-3-yl)carbamate], the Ki on MCL-1 was less than 1 nM. The IC50 in the experiment on H929 cells is less than 500 nM.

Regarding `CN(C(=O)O[C@H]1/C=C/COC(C)(C)C(=O)NS(=O)(=O)c2ccc3c(c2)N(C[C@@H]2CC[C@H]21)C[C@@]1(CCOc2cc(Cl)ccc21)CO3)C1CCOCC1` [Example 304, [(3R,6R,7S,8E,22S)-7′-Chloro-12,12-dimethyl-13,15,15-trioxo-spiro[11,20-dioxa-15-thia-1,14-diazatetracyclo[14.7.2.03,6.019,24]pentacosa-8,16,18,24-tetraene-22,4′-chromane]-7-yl] N-methyl-N-tetrahydropyran-4-yl-carbamate], the Ki on MCL-1 was less than 1 nM. For the same compound, the IC50 in the experiment on H929 cells is less than 500 nM.

`CC1(C)OC/C=C/[C@H](OC(=O)NC2CCOCC2)[C@@H]2CC[C@H]2CN2C[C@@]3(CCOc4cc(Cl)ccc43)COc3ccc(cc32)S(=O)(=O)NC1=O` [Example 305, [(3R,6R,7S,8E,22S)-7′-Chloro-12,12-dimethyl-13,15,15-trioxo-spiro[11,20-dioxa-15-thia-1,14-diazatetracyclo[14.7.2.03,6.019,24]pentacosa-8,16,18,24-tetraene-22,4′-chromane]-7-yl] N-tetrahydropyran-4-yl-carbamate]: at MCL-1, the Ki is less than 1 nM. The IC50 in the experiment with H929 cells is less than 500 nM.

The values are drawn from patent US11130769B2 (Prelude Therapeutics Incorporated, priority 2018, dated 2021).
